Measured values published in patent publication US20110237676A1, “SPERMICIDAL AND MICROBICIDAL COMPOSITIONS” (LEHIGH UNIVERSITY, priority 2007, published 2011).

Columns and labels:
[1] = tested on: sperm cells (whole semen); assay: Sperm cell necropsy by propidium iodide (PI) staining, epifluorescence microscopy; assay type: cell-based, human
Procedure: (§1) The general experimental protocol was as follows: Whole semen, obtained from human subjects after informed consent, was treated with various concentrations of fluorous surfactants. Samples were incubated for 5-10 min at 37° C. and 5% CO2. Semen samples were diluted in an isotonic buffered human sperm medium containing glucose. Sperm motility was scored as “% motility” using differential interference microscopy (“DIC”). Cell necropsy was determined by propidium iodide (“PI”) staining, which is known to stain the DNA of dead cells, and “% death” was scored using epifluorescence microscopy (stained and unstained sperm cells were counted to obtain a live/dead ratio). Acrosome integrity was determined with epifluorescence microscopy and fluorescein-conjugated Pisum sativum agglutinin (“FITC-PSA”) staining, the staining patterns of which are known to indicate the status of the acrosomal membrane.
(§2) To validate the general experimental protocol, the motility of whole semen treated with N-9 for 5 min was determined using DIC microscopy and PI staining Results are presented in Table 1.

[2] = tested on: sperm cells (whole semen); assay: Sperm motility of treated whole semen scored by differential interference microscopy (DIC); assay type: cell-based, human
Procedure: as §1, §2

[3] = tested on: Escherichia coli; assay: Effects on microbes: growth inhibition of E. coli; assay type: cell-based
Excerpt: (§3) Fluorous surfactants also disrupt the membranes of pathogenic microbes, and they therefore have microbicidal activities. Preferably, they are toxic to pathogenic microorganisms, yet compatible with the flora normally found in human mucosal (e.g., vaginal) tissues. The effects of various fluorous surfactants on some laboratory models of pathogenic microorganisms (Escherichia coli, Saccharomyces cerevisiae, and Candida albicans) were studied.

[4] = tested on: acrosome of human spermatozoa; assay: Acrosome integrity by FITC-PSA staining, epifluorescence microscopy; assay type: cell-based; settings: average; for Type I: bright acrosome; for Type III: equatorial segment; for Type II: medium acrosome; for Type IV: no labeling
Procedure: as §1
Staining with fluorescein isothiocyanate Pisium sativum agglutinin (“FITC-PSA”) is known to stain components of the acrosome, and the staining pattern differs depending on the condition of the acrosomal membrane. This technique may be used to identify whether the acrosome is intact. Various patterns of fluorescence are seen after labeling of air-dried human spermatozoa with FITC lectins, including a bright acrosome (Type I), a medium acrosome (Type II), an equatorial segment (Type III), and no labeling (Type IV). See, e.g., Mortimer et al., “Specific Labelling by Peanut Agglutinin of The Outer Acrosomal Membrane of The Human Spermatozoon,” J. Reprod. Fert. 81, 127-35 (1987). Averages of FTIC-PSA results are presented in Table 6, which includes percentages of acrosomes compromised and types of sperm visualized in the control and treated samples.

[5] = tested on: Candida albicans; assay: Effects on microbes: growth inhibition of Candida albicans; assay type: cell-based; settings: for inhibition of growth of Candida: 400 mM
Excerpt: as §3

[6] = tested on: HeLa cells; assay: Effects on HeLa (cervix) cells, morphology by microscopy; assay type: cell-based, human; settings: 1.76 mM, 30 min
Excerpt: The effects of nonoxynol-9 and various fluorous surfactants on HeLa cells, which are a laboratory model for human cervical cells, were studied. […] Accordingly, it is believed that use of a spermicidal fluorous surfactant will be less irritating to human vaginal tissue.

O=S(=O)([O-])CCCOCC(F)(F)C(F)(F)F.[Na+] [F5-PS]
% Death ([1]; 6%, 5 min): 91%
% Death ([1]; 6%, 10 min): 99%
% Death ([1]; 9%, 5 min): 98%
% Death ([1]; 9%, 10 min): 96%
% Death ([1]; 12%, 5 min): 99%
% Motility ([2]; 6%, 5 min): 1%
% Motility ([2]; 9%, 5 min): 0%
% Motility ([2]; 9%, 10 min): 0%
% Motility ([2]; 12%, 5 min): 0%

OCCOCCOCCOCC(F)(F)C(F)(F)F [F5-TEG, F5-triethylene glycol]
inhibition to growth of E. coli relative to non-fluorous homologs [3]: greater inhibition
inhibition of E. coli relative to F7-TEG ([3]; comparable doses): less inhibition
% Death ([1]; 4%, 5 min): 100%
% Death ([1]; 5%, 5 min): 96%
% Death ([1]; 6%, 5 min): 100%
% Death ([1]; 7%, 5 min): 98%
% Death ([1]; 8%, 5 min): 99%
% Death ([1]; 9%, 5 min): 100%
% Death ([1]; 10%, 5 min): 100%
% Death ([1]; 10%, 10 min): 100%
% Death ([1]; 12%, 5 min): 96%
% Death ([1]; 15%, 5 min): 94%
% Death ([1]; 15%, 10 min): 100%
% Motility ([2]; 4%, 5 min): 0%
% Motility ([2]; 5%, 5 min): 0%
% Motility ([2]; 6%, 5 min): 0%
% Motility ([2]; 7%, 5 min): 0%
% Motility ([2]; 8%, 5 min): 0%
% Motility ([2]; 9%, 5 min): 0%
% Motility ([2]; 10%, 5 min): 0%
% Motility ([2]; 10%, 10 min): 0%
% Motility ([2]; 12%, 5 min): 0%
% Motility ([2]; 15%, 5 min): 0%
% Motility ([2]; 15%, 10 min): 0%
Acrosome Compromised ([4]; 5%): 95%
Acrosome Not Compromised ([4]; 5%): 5%
Type I ([4]; 5%): 5%
Type III ([4]; 5%): 3%
Type II ([4]; 5%): 28%
Type IV ([4]; 5%): 64%
Acrosome Compromised ([4]; 6%): 98%
Acrosome Not Compromised ([4]; 6%): 2%
Type I ([4]; 6%): 2%
Type III ([4]; 6%): 1%
Type II ([4]; 6%): 3%
Type IV ([4]; 6%): 93%
Acrosome Compromised ([4]; 10%): 67%
Acrosome Not Compromised ([4]; 10%): 33%
Type I ([4]; 10%): 33%
Type III ([4]; 10%): 2%
Type II ([4]; 10%): 26%
Type IV ([4]; 10%): 38%
inhibition of Candida relative to F7-TEG [5]: somewhat less inhibitory

O=S(=O)([O-])CCCOCC(F)(F)C(F)(F)C(F)(F)F.[Na+] [F7-PS, sodium 3-(2,2,3,3,4,4,4-heptafluoro-butoxy)-propane-1-sulfonate]
inhibition of E. coli ([3]; 250 mM, compared with F7-TEG/F5-TEG treatments): comparable inhibition
% Death ([1]; 4%, 5 min): 90%
% Death ([1]; 4%, 10 min): 99%
% Death ([1]; 5%, 5 min): 96%
% Death ([1]; 5%, 10 min): 96%
% Death ([1]; 7%, 5 min): 100%
% Motility ([2]; 4%, 5 min): <1%
% Motility ([2]; 5%, 5 min): <1%
% Motility ([2]; 5%, 10 min): 0%
% Motility ([2]; 7%, 5 min): 0%
Acrosome Compromised ([4]; 3%): 36%
Acrosome Not Compromised ([4]; 3%): 64%
Type I ([4]; 3%): 64%
Type III ([4]; 3%): 0%
Type II ([4]; 3%): 13%
Type IV ([4]; 3%): 22%
Acrosome Compromised ([4]; 4%): 100%
Acrosome Not Compromised ([4]; 4%): 0%
Type I ([4]; 4%): 0%
Type III ([4]; 4%): <1%
Type II ([4]; 4%): 4%
Type IV ([4]; 4%): 95%
Acrosome Compromised ([4]; 7%): 41%
Acrosome Not Compromised ([4]; 7%): 59%
Type I ([4]; 7%): 59%
Type III ([4]; 7%): 0%
Type II ([4]; 7%): 40%
Type IV ([4]; 7%): 1%
inhibition of growth of Candida ([5]; exposure in the order of 24 hours): significant inhibition of growth
inhibition of growth of Candida ([5]; exposure limited to 3 or 6 hours): allowed recovery of growth

OCCOCCOCCOCC(F)(F)C(F)(F)C(F)(F)F [F7-TEG, F7-triethylene glycol]
inhibition to growth of E. coli relative to non-fluorous homologs [3]: greater inhibition
growth of E. coli ([3]; final concentrations of 1% or greater, 3 hours or longer): unable to grow
% Death ([1]; 5%, 5 min): 97%
% Death ([1]; 5%, 10 min): 99%
% Death ([1]; 6%, 5 min): 98%
% Death ([1]; 7%, 5 min): 99%
% Death ([1]; 8%, 5 min): 100%
% Death ([1]; 9%, 5 min): 100%
% Death ([1]; 10%, 5 min): 95%
% Death ([1]; 12%, 5 min): 99%
% Death ([1]; 15%, 5 min): 98%
% Death ([1]; 15%, 10 min): 100%
% Motility ([2]; 5%, 5 min): 0%
% Motility ([2]; 6%, 5 min): 0%
% Motility ([2]; 7%, 5 min): 0%
% Motility ([2]; 8%, 5 min): 0%
% Motility ([2]; 9%, 5 min): 0%
% Motility ([2]; 10%, 5 min): 1%
% Motility ([2]; 12%, 5 min): 0%
% Motility ([2]; 15%, 5 min): 0%
% Motility ([2]; 15%, 10 min): 0%
Acrosome Compromised ([4]; 5%): 87%
Acrosome Not Compromised ([4]; 5%): 13%
Type I ([4]; 5%): 13%
Type III ([4]; 5%): <1%
Type II ([4]; 5%): 59%
Type IV ([4]; 5%): 28%
Acrosome Compromised ([4]; 6%): 88%
Acrosome Not Compromised ([4]; 6%): 13%
Type I ([4]; 6%): 13%
Type III ([4]; 6%): 5%
Type II ([4]; 6%): 25%
Type IV ([4]; 6%): 58%
Acrosome Compromised ([4]; 10%): 96%
Acrosome Not Compromised ([4]; 10%): 4%
Type I ([4]; 10%): 4%
Type III ([4]; 10%): 3%
Type II ([4]; 10%): 34%
Type IV ([4]; 10%): 59%
inhibition of Candida ([5]; 5%, exposure 3 hours or longer): substantial inhibition

nonoxynol-9 [N-9, reference compound]
% Death ([1]; 0.001%, 5 min, PI staining): 38%
killing of sperm cells ([1]; 1.76 mM, 5 min): kill essentially all sperm cells
% Death ([1]; 0.005%, 5 min, PI staining): 60%
% Death ([1]; 0.01%, 5 min, PI staining): 67%
% Death ([1]; 0.1%, 5 min, PI staining): 94%
% Motility ([2]; 0.001%, 5 min, whole semen): 43%
% Motility ([2]; 0.005%, 5 min, whole semen): 60%
% Motility ([2]; 0.01%, 5 min, whole semen): <1%
% Motility ([2]; 0.1%, 5 min, whole semen): 0%
morphological changes of HeLa cells [6]: significant morphological changes
